From patent US20170348269A1, “TREATMENT OF UREA CYCLE DISORDERS IN NEONATES AND INFANTS” (Horizon Therapeutics, LLC, priority 2016, published 2017)

System: blood ammonia in pediatric patients with UCDs
Assay: HPN-100-012 open-label fixed sequence switch-over study, blood ammonia control
Format: in vivo, human
Source text: HPN-100-012, an open-label, fixed sequence, switch-over study of the safety, PK and efficacy of HPN-100 compared to NaPBA in patients with UCDs, with a 12-month safety extension part. […] After review of all the safety data by the DSMB, 8 additional subjects were enrolled in the study after the switch-over phase was completed. The primary efficacy endpoint was the 24-hour AUC (area under the curve) for blood ammonia on Day 1 compared with Day 10.

[1] = original scale, predefined non-inferiority upper margin 1.25

With `O=C(CCCc1ccccc1)OCC(COC(=O)CCCc1ccccc1)OC(=O)CCCc1ccccc1` [HPN-100, benzenebutanoic acid, 1′,1″-(1,2,3-propanetriyl) ester] the “Mean blood ammonia at the 12-hour time point” value (HPN-100 Day 10, NaPBA Day 1, highest value for both treatments) was 28.24 µmol/L, the “Mean blood ammonia at the 8-h time point” value (HPN-100 Day 10, lowest value on HPN-100) was 23.20 µmol/L and the “24-hour AUC for blood ammonia, HPN-100 vs NaPBA, upper 90% CI” value [1] was 1.002. For the same compound, the “24-hour AUC for blood ammonia, HPN-100 vs NaPBA, upper 95% CI” value [1] was 1.055, the “ammonia AUC, median difference between treatments (HPN-100 vs NaPBA)” value (pediatric UCD patients 29 days to <6 years) was -37.84 µmol·h/L and the “24-hour AUC for blood ammonia (primary efficacy endpoint), HPN-100 compared to NaPBA” value (pediatric UCD patients aged 29 days to <6 years, Day 1 (NaPBA) vs Day 10 (HPN-100), non-inferiority upper margin 1.25) was “non-inferior”. For the same compound, the “Blood ammonia levels postprandially at any given time point, HPN-100 (Day 10) vs NaPBA (Day 1)” value (postprandial) was “directionally lower”.
